According to ChEMBL document CHEMBL1201862, “PubChem BioAssay data set” (2004):
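Tested at 5 concentrations; 48 h exposure; 96-well plates; endpoints linearly interpolated, else capped at highest concentration. At the GI50, growth is halved.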 Activity calls are given as the source filed them. Cut-off read from the data, not from the text of the source: active = GI50 up to about 1.1 µM and inactive = higher.

What was measured:
Test in all cases: inhibition of tumour cell growth, NCI panel, 48 h
A498 = system: A498
EKVX = system: EKVX
HCC 2998 = system: HCC 2998
HCT-15 = system: HCT-15
HOP-62 = system: HOP-62
KM12 = system: KM12
MOLT-4 = system: MOLT-4
Malme-3M = system: Malme-3M
NCI-H460 = system: NCI-H460
OVCAR-4 = system: OVCAR-4
OVCAR-5 = system: OVCAR-5
OVCAR-8 = system: OVCAR-8
RXF 393 = system: RXF 393
SF-539 = system: SF-539
SK-MEL-28 = system: SK-MEL-28
SK-MEL-2 = system: SK-MEL-2
SK-OV-3 = system: SK-OV-3
SR = system: SR
U-251 = system: U-251
HOP-92 = system: HOP-92

Measured: GI50

S=C(Nc1ccccn1)Nc1ccccc1Cl
inactive: A498 > 84.3 µM | EKVX 8.51 µM | HCC 2998 > 100 µM | HOP-62 52 µM | KM12 > 44.4 µM | MOLT-4 > 100 µM | Malme-3M > 48.2 µM | NCI-H460 71 µM | OVCAR-4 > 61.7 µM | OVCAR-5 > 50.2 µM | OVCAR-8 56 µM | RXF 393 33.3 µM | SF-539 55.3 µM | SK-MEL-28 > 100 µM | SK-MEL-2 > 100 µM | SK-OV-3 > 66.1 µM | SR 73.6 µM | U-251 48.6 µM
59.8 µM: HCT-15

C=CCn1c(-c2cc(C(C)(C)C)c(O)c(C(C)(C)C)c2)cs/c1=N\C(P(=O)(O)O)P(=O)(O)O
> 100 µM: HCT-15
inactive: A498 > 100 µM | EKVX > 100 µM | HCC 2998 > 100 µM | HOP-62 > 100 µM | HOP-92 > 100 µM | KM12 83 µM | MOLT-4 > 100 µM | Malme-3M > 100 µM | NCI-H460 > 100 µM | OVCAR-4 > 100 µM | OVCAR-5 > 100 µM | OVCAR-8 > 100 µM | SF-539 > 100 µM | SK-MEL-28 > 100 µM | SK-MEL-2 > 100 µM | SK-OV-3 > 100 µM | SR > 100 µM | U-251 > 100 µM

O=c1c2cc3ccccc3n2c(=O)c2cc3ccccc3n12
> 100 µM: HCT-15
inactive: A498 > 100 µM | EKVX > 100 µM | HCC 2998 > 100 µM | HOP-92 > 100 µM | KM12 89.5 µM | MOLT-4 > 100 µM | Malme-3M > 100 µM | NCI-H460 > 100 µM | OVCAR-4 > 100 µM | OVCAR-5 > 100 µM | OVCAR-8 > 100 µM | RXF 393 > 100 µM | SF-539 > 100 µM | SK-MEL-28 > 100 µM | SK-MEL-2 > 100 µM | SR > 100 µM | U-251 > 100 µM

Cn1c2ccccc2c2c(=O)[nH]c(=O)[nH]c21
inactive: A498 > 100 µM | EKVX > 100 µM | HCC 2998 > 100 µM | HOP-62 > 100 µM | HOP-92 > 100 µM | KM12 > 100 µM | MOLT-4 > 100 µM | Malme-3M > 100 µM | OVCAR-5 > 100 µM | OVCAR-8 > 100 µM | RXF 393 > 100 µM | SF-539 > 100 µM | SK-MEL-28 > 100 µM | SK-MEL-2 > 100 µM | SK-OV-3 > 100 µM | SR > 100 µM | U-251 > 100 µM
> 100 µM: HCT-15

COc1cc(O)c2c(=O)c(OC)c(-c3ccc4c(c3)OCO4)oc2c1
> 100 µM: HCT-15
inactive: A498 38.5 µM | EKVX > 60.8 µM | HCC 2998 > 100 µM | HOP-62 7.76 µM | KM12 > 100 µM | MOLT-4 > 68.9 µM | Malme-3M > 100 µM | NCI-H460 6.01 µM | OVCAR-5 > 100 µM | OVCAR-8 6.15 µM | RXF 393 11.2 µM | SF-539 > 27.4 µM | SK-MEL-28 > 100 µM | SK-MEL-2 59.7 µM | SK-OV-3 13.9 µM | SR > 100 µM | U-251 9.27 µM

CCC(=O)Nc1nc2c(ncn2C2OC(COC(=O)CC)C(OC(=O)CC)C2OC(=O)CC)c(=O)[nH]1 (stereo not given)
inactive: A498 > 100 µM | EKVX > 100 µM | HCC 2998 > 100 µM | HOP-62 > 100 µM | KM12 > 100 µM | MOLT-4 > 100 µM | Malme-3M > 100 µM | NCI-H460 > 100 µM | OVCAR-4 > 100 µM | OVCAR-5 > 100 µM | OVCAR-8 > 100 µM | RXF 393 > 100 µM | SF-539 > 100 µM | SK-MEL-28 > 100 µM | SK-MEL-2 > 100 µM | SK-OV-3 > 100 µM | SR > 100 µM | U-251 > 100 µM
> 100 µM: HCT-15

O=c1c2cc(Br)ccc2[nH]c(=S)n1-c1ccc(Br)cc1
> 100 µM: HCT-15
inactive: A498 > 100 µM | EKVX > 100 µM | HCC 2998 > 100 µM | HOP-62 67.6 µM | HOP-92 23 µM | KM12 > 100 µM | MOLT-4 > 100 µM | Malme-3M > 100 µM | NCI-H460 82.8 µM | OVCAR-4 76.4 µM | OVCAR-8 31 µM | RXF 393 > 100 µM | SF-539 97.1 µM | SK-MEL-28 > 100 µM | SK-MEL-2 87.7 µM | SR > 100 µM | U-251 47.3 µM

O=CCCCC(Sc1ccccc1)Sc1ccccc1
inactive: A498 38.8 µM | EKVX 31.1 µM | HCC 2998 31 µM | HOP-62 > 100 µM | KM12 33 µM | MOLT-4 12.5 µM | NCI-H460 > 10 µM | OVCAR-4 21.7 µM | OVCAR-8 17.4 µM | RXF 393 > 10 µM | SK-MEL-28 15.8 µM | SK-MEL-2 20.2 µM | SK-OV-3 18.7 µM | SR 15.6 µM | U-251 15.5 µM
15.7 µM: HCT-15

O=C[C@]12CC=C3OC4OC5(CCCCC5)OC4[C@H]3[C@H]1C(=O)C=CC2=O (stereo not given in full)
18.7 µM: HCT-15
inactive: A498 > 100 µM | EKVX 16.1 µM | HCC 2998 32.7 µM | HOP-62 > 100 µM | KM12 29.4 µM | MOLT-4 2.85 µM | Malme-3M 17.6 µM | NCI-H460 23.9 µM | OVCAR-4 16.7 µM | OVCAR-5 53.3 µM | OVCAR-8 17.6 µM | RXF 393 12.6 µM | SF-539 3.55 µM | SK-MEL-28 26.7 µM | SK-MEL-2 33.7 µM | SK-OV-3 45.8 µM | SR 2.52 µM | U-251 22.7 µM

NCCCC[C@H](N)C(=O)Nc1ccc(-c2nc3ccccc3s2)cc1
inactive: A498 22.1 µM | EKVX 10.1 µM | HCC 2998 26.7 µM | HOP-62 25.1 µM | HOP-92 34.7 µM | KM12 18.5 µM | MOLT-4 16.2 µM | Malme-3M 19.4 µM | NCI-H460 16.9 µM | OVCAR-4 36.2 µM | OVCAR-5 14.9 µM | OVCAR-8 19.8 µM | RXF 393 33.2 µM | SK-MEL-28 19.7 µM | SK-MEL-2 29.1 µM | SK-OV-3 21.1 µM | SR 18.4 µM | U-251 14.3 µM
17.4 µM: HCT-15

COc1ccc(C2=Nn3c(nc4sc5c(c4c3=O)CCCC5)SC2)cc1
inactive: A498 > 100 µM | EKVX > 100 µM | HCC 2998 > 100 µM | HOP-62 49.8 µM | HOP-92 > 100 µM | KM12 > 100 µM | MOLT-4 > 100 µM | Malme-3M > 100 µM | NCI-H460 > 100 µM | OVCAR-4 > 100 µM | OVCAR-5 > 100 µM | OVCAR-8 > 100 µM | RXF 393 > 100 µM | SF-539 > 100 µM | SK-MEL-28 > 100 µM | SK-OV-3 > 100 µM | SR > 100 µM | U-251 > 100 µM
> 100 µM: HCT-15

O=C(Cc1ccc2ccccc2c1)NCc1ccc(C(=O)NCCc2ccccc2)cc1
> 100 µM: HCT-15
inactive: A498 > 100 µM | EKVX > 100 µM | HCC 2998 > 100 µM | HOP-62 > 100 µM | HOP-92 > 100 µM | KM12 > 100 µM | Malme-3M > 100 µM | NCI-H460 > 100 µM | OVCAR-4 > 100 µM | OVCAR-5 > 100 µM | OVCAR-8 > 100 µM | RXF 393 > 100 µM | SK-MEL-28 > 100 µM | SK-MEL-2 > 100 µM | SK-OV-3 > 100 µM | SR > 100 µM | U-251 > 100 µM

c1cc(-c2cn[nH]c2)cc(-c2cn[nH]c2)c1
inactive: A498 25.3 µM | EKVX 6.24 µM | HCC 2998 88.9 µM | HOP-62 17.8 µM | HOP-92 > 100 µM | KM12 41 µM | MOLT-4 33.1 µM | NCI-H460 41.4 µM | OVCAR-4 54 µM | OVCAR-8 36.9 µM | RXF 393 6.44 µM | SF-539 17.9 µM | SK-MEL-28 35.9 µM | SK-MEL-2 56 µM | SK-OV-3 8.55 µM | SR 31.8 µM | U-251 46.8 µM
28.4 µM: HCT-15

Cn1nc2ccc([N+](=O)[O-])cc2[n+]1[O-]
> 100 µM: HCT-15
inactive: A498 87.9 µM | EKVX > 100 µM | HCC 2998 > 100 µM | HOP-62 > 100 µM | KM12 > 100 µM | MOLT-4 > 100 µM | Malme-3M > 100 µM | NCI-H460 > 100 µM | OVCAR-4 > 100 µM | OVCAR-5 > 100 µM | OVCAR-8 > 100 µM | RXF 393 > 100 µM | SF-539 > 100 µM | SK-MEL-2 > 100 µM | SK-OV-3 > 100 µM | SR > 100 µM | U-251 > 100 µM

COC(=O)c1ccccc1/C=C1/Cc2cccc(C)c2C1=O
inactive: A498 > 100 µM | EKVX > 100 µM | HCC 2998 > 100 µM | HOP-62 31 µM | HOP-92 31.8 µM | KM12 > 100 µM | MOLT-4 > 100 µM | Malme-3M > 100 µM | NCI-H460 > 100 µM | OVCAR-4 > 100 µM | OVCAR-5 > 100 µM | OVCAR-8 > 100 µM | RXF 393 41.2 µM | SF-539 > 100 µM | SK-MEL-28 > 100 µM | SK-OV-3 > 100 µM | SR > 100 µM | U-251 31 µM
> 100 µM: HCT-15
